Legend:
[1] = biological target: T1, 5-HT2a recombinant receptor (Homo sapiens, UniProt P28223); assay: Aequorin cell line functional assay; type: cell-based; conditions: human recombinant cell lines; FIG. 1
T1 construct: expressed in transfected cells
Description: (§1) Aequorin cell lines expressing the 5-HT2a, 5-HT2b and 5-HT2c non-edited (ne) recombinant receptors were used to evaluate the functional activity of eltoprazine. Aequorin cells grown 18 h prior to the test in media without antibiotics were detached by gentle flushing with PBS-EDTA (5 mM EDTA), recovered by centrifugation and resuspended in “assay buffer” (DMEM/HAM's F12 with HEPES+0.1% BSA protease free). Cells were incubated at room temperature for at least 4 h with Coelenterazine h (Molecular Probes). The reference agonist used were 5-HT and α-methyl-5-HT. For agonist testing, 50 μl of cell suspension were injected on 50 μl of test compound or reference agonist plated in a 96-well plate. The resulting emission of light was recorded using the Hamamatsu Functional Drug Screening System 6000 (FDSS 6000).

[2] = biological target: T2, 5-HT2c non-edited (ne) recombinant receptor (Homo sapiens, UniProt P28335); assay: Aequorin cell line functional assay; type: cell-based; conditions: human recombinant cell lines; FIG. 1
T2 construct: expressed in transfected cells
T2 sequence (P28335 33-458): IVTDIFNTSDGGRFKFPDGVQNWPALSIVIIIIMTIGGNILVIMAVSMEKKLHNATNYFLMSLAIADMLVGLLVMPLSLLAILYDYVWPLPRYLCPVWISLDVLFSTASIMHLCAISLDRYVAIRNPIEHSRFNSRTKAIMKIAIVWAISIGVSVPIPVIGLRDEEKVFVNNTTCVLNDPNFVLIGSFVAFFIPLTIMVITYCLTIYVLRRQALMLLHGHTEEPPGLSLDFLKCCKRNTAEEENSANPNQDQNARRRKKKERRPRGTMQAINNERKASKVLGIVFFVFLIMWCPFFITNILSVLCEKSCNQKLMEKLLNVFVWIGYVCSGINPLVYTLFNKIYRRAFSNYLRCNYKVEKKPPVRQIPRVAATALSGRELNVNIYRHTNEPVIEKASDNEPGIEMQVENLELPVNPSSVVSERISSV
Description: as §1

[3] = system: unilaterally 6-OHDA-lesioned rats; assay: L-DOPA induced dyskinesia (AIM scores) in 6-OHDA-lesioned rat model of Parkinson's disease; type: in vivo, Sprague Dawley rats; conditions: eltoprazine hydrochloride 0.08, 0.3, 1.25 and 5 mg/kg s.c.; after 21 days of L-DOPA; dose-dependent; FIG. 2
Description: (§2) Male Sprague Dawley rats (Elevage Janvier, Le Genest Saint Isle, France) weighing between 220 and 250 g at the beginning of the study are used in these experiments. They are housed under a 12 h light/dark cycle with free access to standard pelleted food and tap water. Animal treatment and experimental procedures are approved by local ethical committees (Regierungspräsidium Darmstadt; Germany).
(§3) Dopamine-denervating lesions are performed on rats anaesthetized with a 5:1 mixture of ketamine and xylazine (1 ml/kg, i.p.). […] The animals' turning behaviour is recorded in an automated rotometer (TSE Rotameter System, TSE-Systems GmbH, Bad Homburg, Germany) over a 90 min period after the intraperitoneal (i.p.) injection of 2.5 mg/kg dexamphetamine sulphate dissolved in saline. […]
In order to evaluate the severity of LID, AIMs are recorded every second day as described by Cenci et al. (1998). […] Each rat is scored on a severity scale from 0 to 4 based on its frequency and persistence (1=occasional; 2=frequent; 3=continuous but interrupted by sensory distraction; 4=continuous, severe and not interrupted by sensory distraction). […]

[4] = system: unilaterally 6-OHDA-lesioned rats; assay: Turning behaviour induced by high dose of L-DOPA in 6-OHDA-lesioned rats; type: in vivo, Sprague Dawley rats; conditions: 0.3, 1.25 and 5 mg/kg, 30 min before the test; FIG. 3
Description: as §2, §3
In order to evaluate the effect of eltoprazine on parkinsonian symptoms and its interaction with L-DOPA, rotational behaviour is evaluated. The numbers of ipsilateral and contralateral turns are recorded in an automated rotometer (TSE Rotameter System, TSE-Systems GmbH, Bad Homburg, Germany) over a period of 180 min. […]

5-HT1a receptor = conditions: Schipper et al. 1990; cited from earlier work
[5] = system: 5-HT2c (initially designated 5-HT1c); conditions: Schipper et al. 1990; cited from earlier work

T1 sequence (P28223 whole entry): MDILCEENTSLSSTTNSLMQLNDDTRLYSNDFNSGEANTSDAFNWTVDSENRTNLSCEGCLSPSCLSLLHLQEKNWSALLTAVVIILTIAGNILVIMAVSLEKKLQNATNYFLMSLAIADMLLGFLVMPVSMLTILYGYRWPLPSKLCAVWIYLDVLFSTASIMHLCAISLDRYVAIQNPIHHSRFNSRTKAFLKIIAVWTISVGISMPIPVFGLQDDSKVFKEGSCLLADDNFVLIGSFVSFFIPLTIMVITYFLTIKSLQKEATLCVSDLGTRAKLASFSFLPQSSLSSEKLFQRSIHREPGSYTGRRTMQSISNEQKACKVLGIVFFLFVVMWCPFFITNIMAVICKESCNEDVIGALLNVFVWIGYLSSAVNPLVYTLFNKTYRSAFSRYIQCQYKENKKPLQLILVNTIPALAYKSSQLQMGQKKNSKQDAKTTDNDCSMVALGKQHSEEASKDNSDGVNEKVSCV

c1cc2c(c(N3CCNCC3)c1)OCCO2 [eltoprazine, 1-(2,3-dihydro-1,4-benzodioxin-5-yl)piperazine]
functional activity at 5-HT2a receptor [1]: full agonist
functional activity at 5-HT2c receptor [2]: full agonist
effect on AIM scores [3]: significantly reverses
interference with the antiparkinsonian effect of L-DOPA (turning behaviour) [4]: does not interfere
effect on 5-HT1a receptor (5-HT1a receptor): agonistic effect
effect on 5-HT2c [5]: antagonistic

From US20120136005A1, “E[…] THE TREATMENT OF ANXIETY” (MERZ PHARMA GmbH & CO. KGaA, priority 2009, published 2012)
